# Legend:
# Botrytis cinerea [1] = assay: Treatment of wounded strawberries inoculated with Botrytis cinerea (Examples 5, 6); type: in vivo; conditions: for Observed antifungal activity O (%): strawberries, 20° C.
# Procedure: Twelve fresh, organic strawberries were used per treatment. Each strawberry was wounded with a 0.5 mm long cut and each wound was inoculated with 10 μl of a Botrytis cinerea suspension containing 1×10^5 of spores/ml. After a 3-hour incubation period at 20° C., each strawberry was dipped individually for 1 minute in a freshly prepared aqueous antifungal composition comprising either 500 ppm natamycin (DSM Food Specialties, Delft, The Netherlands), 500 ppm fenhexamid or both. Each antifungal composition also comprised 3.2% (w/w) beeswax, 0.8% (w/w) glycerol, 0.7% (w/w) polyoxyethylene sorbitan monostearate (Tween 60), 0.1% (w/w) polyoxyethylene sorbitan monooleate (Tween 80), 0.05% (w/w) methylhydroxyethyl-cellulose (MHEC), 0.03% (w/w) anti-foaming agent, 0.02% (w/w) xanthan gum, 0.02% (w/w) citric acid, 0.01% (w/w) lactic acid and 0.01% potassium sorbate. A composition without natamycin or fenhexamid was used as control. […] The treated strawberries were incubated in a closed box in the dark at 20° C. for 11 days.
# The expected antifungal activity (E in %) of the combined antifungal composition comprising both active ingredients was calculated according to the Colby equation (Colby, 1967): […]
# wherein X and Y are the observed antifungal activities (in %) of the individual active ingredients X and Y, respectively.
# The experiment was conducted as described in Example 5, except for the fact that each wounded and inoculated strawberry was dipped individually for 1 minute in a freshly prepared aqueous antifungal composition comprising either 250 ppm natamycin (DSM Food Specialties, Delft, The Netherlands), 250 ppm fenhexamid or both. The treated strawberries were incubated in a closed box in the dark at 20° C. for 10 days. During incubation, the treated strawberries were assessed on mould growth according to the two methods described in Example 5.
# Botrytis cinerea [2] = assay: Treatment of wounded sweet peppers inoculated with Botrytis cinerea (Examples 9, 10); type: in vivo; conditions: 20° C., 400 ppm natamycin
# Procedure: Ten fresh, organic sweet peppers were used per treatment. Each sweet pepper was soaked in a 180 ppm hypochlorite solution for 10 minutes, then rinsed thoroughly with fresh tap water and dried. The peel of each disinfected sweet pepper was wounded once using a cork borer according to the method described by de Lapeyre de Bellaire and Dubois (1987). Subsequently, each wound was inoculated with 10 μl of a Botrytis cinerea suspension containing 1×10^5 of spores/ml. After incubation for 3 hours at 20° C., each wound and the skin area of 0.5 cm around the wound was treated with in total 75 μl of a freshly prepared aqueous antifungal composition comprising either 400 ppm natamycin (DSM Food Specialties, Delft, The Netherlands), 600 ppm fenhexamid or both. Each antifungal composition also comprised 3.2% (w/w) beeswax, 0.8% (w/w) glycerol, 0.7% (w/w) polyoxyethylene sorbitan monostearate (Tween 60), 0.2% (w/w) polyoxyethylene sorbitan monooleate (Tween 80), 0.05% (w/w) methylhydroxyethyl-cellulose (MHEC), 0.03% (w/w) anti-foaming agent, 0.02% (w/w) xanthan gum, 0.02% (w/w) citric acid, 0.01% (w/w) lactic acid and 0.01% potassium sorbate. A composition without natamycin or fenhexamid was used as control.
# The treated sweet peppers were incubated in a closed box in the dark at 20° C. and assessed on mould growth during a 26-day incubation period. The antifungal activity (in %) of the individual and combined active ingredients was determined by calculating the reduction in mould growth observed on the sweet peppers treated with the antifungal composition in comparison to the mould growth on the sweet peppers treated with the control composition according to the Colby method (Colby, 1967) described in Example 5.
# The experiment was conducted as described in Example 9, except for the fact that each wounded and inoculated sweet pepper was treated with 75 μl of a freshly prepared aqueous antifungal composition comprising either 400 ppm natamycin (DSM Food Specialties, Delft, The Netherlands), 800 ppm carboxin or both. The treated sweet peppers were incubated in a closed box in the dark at 20° C. and assessed on mould growth during a 26-day incubation period. During incubation, the treated sweet peppers were assessed on mould growth according to the method described in Example 9.
smiles,measurement,setting,value
"C[C@@H]1C/C=C/C=C/C=C/C=C/[C@H](O[C@@H]2O[C@H](C)[C@@H](O)[C@H](N)[C@@H]2O)C[C@@H]2O[C@](O)(C[C@@H](O)C[C@H]3O[C@@H]3/C=C/C(=O)O1)C[C@H](O)[C@H]2C(=O)O [Natamycin, natamycin]",Number of moulded strawberries/total number of 12 strawberries,"Botrytis cinerea [1]; Day 5, 20° C., 250 ppm natamycin, 250 ppm fenhexamid or both",9/12
same,Number of moulded strawberries/total number of 12 strawberries,"Botrytis cinerea [1]; Day 5, 20° C., 250 ppm natamycin, 250 ppm fenhexamid or both, listed as natamycin",9
same,Number of moulded strawberries/total number of 12 strawberries,"Botrytis cinerea [1]; Day 6-7, 20° C., 250 ppm natamycin, 250 ppm fenhexamid or both",11/12
same,Number of moulded strawberries/total number of 12 strawberries,"Botrytis cinerea [1]; Day 6-7, 20° C., 250 ppm natamycin, 250 ppm fenhexamid or both, listed as natamycin",11
same,Number of moulded strawberries/total number of 12 strawberries,"Botrytis cinerea [1]; Day 7-8, 20° C., 500 ppm natamycin, 500 ppm fenhexamid or both",12/12
same,Number of moulded strawberries/total number of 12 strawberries,"Botrytis cinerea [1]; Day 8, 20° C., 250 ppm natamycin, 250 ppm fenhexamid or both",11/12
same,Number of moulded strawberries/total number of 12 strawberries,"Botrytis cinerea [1]; Day 8, 20° C., 250 ppm natamycin, 250 ppm fenhexamid or both, listed as natamycin",11
same,Number of moulded strawberries/total number of 12 strawberries,"Botrytis cinerea [1]; Day 9, 20° C., 500 ppm natamycin, 500 ppm fenhexamid or both",12/12
same,Number of moulded strawberries of 12,"Botrytis cinerea [1]; after 6 through 9 days of incubation, 500 ppm natamycin alone or 500 ppm fenhexamid alone",12
same,Observed antifungal activity O (%),"Botrytis cinerea [1]; 8 days, 250 ppm natamycin, 250 ppm fenhexamid or both",18%
same,Observed antifungal activity O (%),"Botrytis cinerea [1]; 9 days, 250 ppm natamycin, 250 ppm fenhexamid or both",13%
same,Observed antifungal activity O (%),"Botrytis cinerea [1]; 10 days, 250 ppm natamycin, 250 ppm fenhexamid or both",4.8%
same,Observed antifungal activity O (%),"Botrytis cinerea [1]; 10 days, 500 ppm natamycin, 500 ppm fenhexamid or both",2.4%
same,Observed antifungal activity O (%),"Botrytis cinerea [1]; 11 days, 500 ppm natamycin, 500 ppm fenhexamid or both",2.4%
same,Observed antifungal activity O (%),"Botrytis cinerea [2]; 13-17 days, 600 ppm fenhexamid or both",86%
same,Observed antifungal activity O (%),"Botrytis cinerea [2]; 17-19 days, 800 ppm carboxin or both",86%
same,Observed antifungal activity O (%),"Botrytis cinerea [2]; 18-22 days, 600 ppm fenhexamid or both",86%
same,Observed antifungal activity O (%),"Botrytis cinerea [2]; 20-21 days, 800 ppm carboxin or both",87%
same,Observed antifungal activity O (%),"Botrytis cinerea [2]; 6 days, 600 ppm fenhexamid or both",95%
same,Observed antifungal activity O (%),"Botrytis cinerea [2]; 8 days, 600 ppm fenhexamid or both",94%
same,Observed antifungal activity O (%),"Botrytis cinerea [2]; 10 days, 600 ppm fenhexamid or both",89%
same,Observed antifungal activity O (%),"Botrytis cinerea [2]; 11 days, 600 ppm fenhexamid or both",87%
same,Observed antifungal activity O (%),"Botrytis cinerea [2]; 22 days, 800 ppm carboxin or both",85%
same,Observed antifungal activity O (%),"Botrytis cinerea [2]; 24 days, 600 ppm fenhexamid or both",83%
same,Observed antifungal activity O (%),"Botrytis cinerea [2]; 24 days, 800 ppm carboxin or both",83%
same,Observed antifungal activity O (%),"Botrytis cinerea [2]; 25 days, 600 ppm fenhexamid or both",82%
same,Observed antifungal activity O (%),"Botrytis cinerea [2]; 25 days, 800 ppm carboxin or both",82%
same,Observed antifungal activity O (%),"Botrytis cinerea [2]; 26 days, 600 ppm fenhexamid or both",79%
same,Observed antifungal activity O (%),"Botrytis cinerea [2]; 26 days, 800 ppm carboxin or both",79%

# From patent US20150157021A1, “NEW ANTIFUNGAL COMPOSITIONS” (DSM IP ASSETS B.V., priority 2012, published 2015)
